# Measured values published in patent US6472415B1, “Androgen receptor suppressors in the therapy and diagnosis of prostate cancer, alopecia and other hyper-androgenic syndromes” (priority 1998, dated 2002).
# Where two headings read alike, the source gives them in different places.
# Experiments:
# [1] = Systemic toxicity, repeated i.p. injection in mice; format: in vivo; conditions: i.p.
# Procedure: Systemic toxicity was orientationally evaluated by i.p. injection every 2nd day in mice. […] For BP-34, the corresponding values were 150 mg/kg bw and 300 mg/kg bw.
# The maximum tolerated dose should thus be approximately 300 mg/kg. For BP-34, i.p. injections of 100-300 mg/kg produce no mortalities in mice. […] Therefore, the maximum tolerated dose of BP-34 should be approximately 250 mg/kg.
# [2] = four rabbits, topically twice daily (0.6 mg/kg-day), ten days; limit of detection approximately 10 ng/ml
# Procedure: (§1) Serum samples were collected at 2, 5 and 21 hours after the first application, and once every other day, thereafter. Serum samples were processed and analyzed by HPLC.
# [3] = rabbits, topical twice daily, ten days
# Procedure: as §1
# The rabbits were also observed daily for signs of cutaneous irritation.
# [4] = tested on: androgenic alopecia
# [5] = probit analysis
# [6] = male and female Wistar rats, highest dose tested
smiles,measurement,setting,value
"CC(O)(CNC(=O)C(F)(F)F)C(=O)Nc1ccc([N+](=O)[O-])c(C(F)(F)F)c1 (centres unmarked) [BP-766, 4-nitro-3-trifluoromethyl-N-(2′-hydroxy-2′-methyl-3′-N-(trifluoromethylamido)propionyl) aniline]",Maximum tolerated dose,[1],approximately 300 mg/kg
same,LD50 (daily dose for seven days that resulted in 50% mortality),[1]; daily for seven days,450 mg/kg bw
same,BP-766 and/or BP-34 in serum after topical application,[2],No. BP-766 or BP-34 were found in any of the samples
same,Signs of cutaneous irritation,[3],No signs of irritation
same,Effect on effluvium of the frontal hairline,"[4]; six volunteers (4 male, 2 female), 2% solution, 1 ml twice daily, after 2 weeks",arrested the effluvium of the frontal hairline in all six volunteers
same,Dermal irritation,"[4]; six volunteers, 2% solution in anhydrous isopropanol, 1 ml twice daily (0.6 mg/kg), 8 weeks",no dermal irritation
same,Regrowth,"[4]; two volunteers, after 4 months use",evident regrowth
same,% BP-766,"60/40 EtOH/H2O, 55° C., 0 hours",100%
same,% BP-766,"60/40 EtOH/H2O, 55° C., 24 hours",98.1%
same,% BP-766,"60/40 EtOH/H2O, 55° C., 48 hours",98.2%
same,% BP-766,"60/40 EtOH/H2O, RT, 0 hours",100%
same,% BP-766,"60/40 EtOH/H2O, RT, 24 hours",99.9%
same,% BP-766,"60/40 EtOH/H2O, RT, 48 hours",99.69%
same,% BP-766,"Isopropanol (3-5% water), 55° C., 0 hours",100%
same,% BP-766,"Isopropanol (3-5% water), 55° C., 6 hours",99.6%
same,% BP-766,"Isopropanol (3-5% water), 55° C., 24 hours",99.1%
same,% BP-766,"Isopropanol (3-5% water), 55° C., 144 hours",98.7%
same,% BP-766,"anhydrous isopropanol, 50° C., 0 weeks",100%
same,% BP-766,"anhydrous isopropanol, 50° C., 1 week",99.6%
same,% BP-766,"anhydrous isopropanol, 50° C., 2 weeks",99.4%
same,% BP-766,"anhydrous isopropanol, 50° C., 3 weeks",99.3%
same,% BP-766,"anhydrous isopropanol, 50° C., 4 weeks",99.2%
same,% BP-766,"anhydrous isopropanol, 50° C., 5 weeks",98.9%
same,% BP-766,"anhydrous isopropanol, 50° C., 6 weeks",98.8%
same,% BP-766,"anhydrous isopropanol, 50° C., 7 weeks",98.3%
same,% BP-766,"anhydrous isopropanol, 50° C., 8 weeks",98.4%
same,"LD50, acute oral",[5]; female NMRI mice,2232.0 mg/kg
same,"LD50, acute oral",[5]; male NMRI mice,2871.7 mg/kg
same,"LD50, acute oral",[6],> 2500 mg/kg body weight
